Results: patent US9082528B2, “Method for making carbon nanotube-loaded electrode, carbon nanotube-loaded electrode made by the method, and applications thereof” (priority 2011, dated 2015)

Tested on: acetylcholine esterase (AChE)
Experiment: Electrochemical (CV) inhibition of AChE activity on AChE/ChO/POD/CNT/DEN(PtNP)s-loaded SPCGC electrode
Format: biochemical
Settings: for I x/Io: anodic peak current, 10 mM phosphate buffer pH 7.4 with ACh
Experimental: AChE, ChO and POD enzymes were adsorbed on CNT/DEN(PtNP)s-loaded SPCGC electrode. The aqueous solution containing AChE/ChO/POD was dropped on the CNT/DEN(PtNP)s-loaded SPCGC surface and the adsorption was allowed to occur for 24 hours. The AChE-ChO-POD-adsorbed CNT/DEN(PtNP)s-loaded (AChE/ChO/POD/CNT/DEN(PtNP)s-loaded) SPCGC DEP chip was stored at 4° C. till use.
Electrochemical detection of a DZN compound on the AChE/ChO/POD/CNT/DEN(PtNP)s-loaded SPCGC electrode was performed on a CV (a Hokuto-Denko HZ-3000) apparatus in the potential range of −0.6 to 1 V at a scan rate of 20 mVs^−1 in a phosphate buffer solution. All the measurements were carried out at room temperature in 2 cm^3 of a test solution, which has to cover the circular working electrode area of the sensors supported vertically during the CV measurement. The anodic oxidation peak at 0.06-0.1 V was used to evaluate the inhibition of AChE activity by DZN. The enzyme inhibition was calculated according to the following equation (Equation 1) (Dounin et al., Analytica Chimica Acta 2010, 669, 63-67): % inhibition=100(Io−Ix)/Io [Equation 1], wherein Io is the anodic peak current of oxidation at 0.06-0.1 V of a control sample in the absence of DZN, while Ix refers to the peak current of DZN-containing samples.
For the electrochemical detection of DZN compound, CNT/DEN(PtNP)s hybrids at M:D 0.4:1 was fabricated onto the SPCGC electrode. Then, an AChE/ChO/POD/CNT/DEN(PtNP)s-loaded SPCGC biosensor was developed by loading 10 mm^3 of 2.21 U of AChE, 4.3 U of ChO and 44.7 U of POD on the CNT/DEN(PtNP)s-loaded SPCGC electrode. The bioactivity of the AChE/ChO/POD/CNT/DEN(PtNP)s-loaded SPCGC biosensor was investigated by CV at room temperature.
The approach for determination of one (DZN) of organophosphate pesticides by this biosensor is based on the inhibition of AChE activity. In the absence of DZN, AChE hydrolyzes Ach to acetic acid and choline (Ch) (Lin et al., Electroanalysis, 2004, 16(1-2), 145-149):
The inhibition of AChE activity by DZN was determined by measuring the oxidation or reduction current of H2O2 which is correlated to the concentration of Ch produced by AChE.
This anodic oxidation peak is attributed to the oxidation of hydrogen peroxide (H2O2) generated from the enzymatic reaction of AChE and ChO. The peak potential of H2O2 oxidation by the present electrode was lower than by an AChE/ChO/CNT electrode (0.50 V) (Lin et al., Electroanalysis, 2004, 16(1-2), 145-149). […] Meanwhile, a very small reduction peak around −0.2 V was also observed at only the first CV scan. This peak is attributed to the reduction of the generated H2O2 by POD. […] Therefore, the inhibition of AChE by DZN can be determined by the decrease in the oxidation current at 0.09 V.
The obtained currents of anodic oxidation peak were utilized to evaluate the enzyme activity, […], and the inhibition value, (Io−Ix)/Io, where Io and Ix are current densities in ACh solutions without and with DZN.

## CCOP(=S)(OCC)Oc1cc(C)nc(C(C)C)n1 [DZN, O,O-diethyl 0-2-isopropyl-6-methyl(pyrimidine-4-yl)phosphorothioate]
DZN 0.05 ppm
  % Enzyme Activity: 78.6%
  % Inhibition: 21.4%
  [Io-Ix]/Io: 0.214
  I x/Io: 0.785
DZN 0.1 ppm
  % Enzyme Activity: 59.1%
  % Inhibition: 40.9%
  [Io-Ix]/Io: 0.409
  I x/Io: 0.590
DZN 0.5 ppm
  % Enzyme Activity: 52.5%
  % Inhibition: 47.6%
  [Io-Ix]/Io: 0.475
  I x/Io: 0.524
DZN 1 ppm
  % Enzyme Activity: 17.2%
  % Inhibition: 82.8%
  [Io-Ix]/Io: 0.828
  I x/Io: 0.171
DZN 5 ppm
  % Enzyme Activity: 23.2%
  % Inhibition: 76.8%
  [Io-Ix]/Io: 0.768
  I x/Io: 0.231
DZN 10 ppm
  % Enzyme Activity: 13.4%
  % Inhibition: 86.6%
  [Io-Ix]/Io: 0.866
  I x/Io: 0.133
